Assays:
TIMP-1 = experiment: Hepatic expression of TIMP-1 by qRT-PCR, CDHFD/NaNO2 rat model of NASH; format: in vivo, male Wistar rats; details: vs vehicle; rats; Formula (I) 0.2% in diet, Formula (III) 30 mg/kg/day, week 4 to 14
Experimental: The following study was conducted to evaluate the efficacy of the combination of an ASK1 inhibitor and an FXR agonist in a rodent model of non-alcoholic steatohepatitis (NASH), relative to the efficacy of the individual agents alone in the model. NASH was induced in male Wistar rats by administration of a choline-deficient high fat diet (CDHFD) combined with the chronic administration of sodium nitrite (CDHFD/NaNO2). The model capitalizes on the “two hit theory” of NASH by inducing both metabolic dysfunction (CDHFD) and oxidative stress (NaNO2) in the liver to result in hepatic fibrosis that is similar in character and severity to that seen in patients with advanced NASH. […] The following endpoints were assessed at the completion of the 14 week study: i) liver fibrosis measured by liver hydroxyproline (OHP) content and by quantitative morphometric analysis of collagen content by Picosirius red (PSR) staining; ii) myofibroblast activation in liver sections as measured by quantitative IHC of the myofibroblast marker desmin; and, iii) Col1a1 and Timp1 in liver tissue measured by RT-PCR. […] All endpoints were assessed at the completion of the 14 week study protocol. […] Quantitative PCR was performed and analyzed using Absolute QPCR Rox Mix (Life Technologies, Cat No # AB-1132) and a 384-format ABI 7900HT Sequence Detection System (Applied Biosystems). […]

FFD mice = experiment: Plasma bile acids by LC-MS/MS in FFD mouse model of NASH; format: in vivo, male C57BL/6 mice; details: Formula (I) 0.15% admixture in diet, Formula (III) 10 mg/kg PO QD, months 7-10
Experimental: The following study was conducted to evaluate the efficacy of the combination of an ASK1 inhibitor and an FXR agonist in a mouse model of non-alcoholic steatohepatitis (NASH), relative to the efficacy of the individual agents alone in the model. NASH was induced in male C57BL/6 mice by chronic administration of a “fast food” diet (FFD) high in saturated fats, cholesterol and sugars for a total of 10 months, whereas lean control animals were maintained on a normal chow diet. A NASH phenotype was established in FFD mice compared to control mice by 7 months, and was characterized by obesity, hypercholesterolemia, and AST/ALT elevation; and by histological features of NASH such as hepatocellular macrovesicular steatosis and ballooning degeneration. See Charlton M, et al. Fast food diet mouse: novel small animal model of NASH with ballooning, progressive fibrosis, and high physiological fidelity to the human condition. American journal of physiology. Gastrointestinal and liver physiology 2011; 301 (5):G825-34. […] Endpoint analyses included morphometric quantification of liver steatosis (% of steatotic area), liver cholesterol content, serum ALT/AST levels, serum bile acid levels, and nanostring evaluation of gene expression. […] Plasma samples were sent to Metabolon, Inc. (Durham, N.C.) for quantification of primary and secondary bile acids and their conjugates by LC-MS/MS.

Row | Structure (SMILES) | reduction of hepatic TIMP-1 expression induced by CDHFD/NaNO2 (TIMP-1) | reduction in plasma bile acid levels (FFD mice)
1 | O=C(Nc1cccc(-c2nncn2C2CC2)c1)c1cc(-n2cnc(C3CC3)c2)ccn1 [Formula (I)] | 28% | 52%
2 | O=C(O)c1ccnc(N2CC(O)(c3ccc(OCc4c(-c5c(Cl)cccc5Cl)noc4C4CC4)cc3Cl)C2)c1 [Formula (III)] | did not significantly reduce | 46%

— US20180133203A1, “METHODS OF TREATING LIVER DISEASE” (Gilead Sciences, Inc., priority 2016, published 2018)
